The values that follow are results of earlier work, collected in US20100016582A1 (Wyeth, priority 2008, published 2010).

The conditions of data set [1]: drug formulations; acetic acid.
For data set [2] the following is noted: contact with a solvent or solvent mixture (e.g., ethyl acetate and ethanol).
For the next data set, the system named is uterine response. The settings on record: preclinical models of uterine stimulation.
Data set [3] concerns ovariectomized rat model of osteopenia.
Data set [4] deals with MCF-7 cell line (human breast cancer cell line).

On to `Cc1c(-c2ccc(O)cc2)n(Cc2ccc(OCCN3CCCCCC3)cc2)c2ccc(O)cc12` [Form A, 1-[4-(2-azepan-1-yl-ethoxy)-benzyl]-2-(4-hydroxy-phenyl)-3-methyl-1H-indol-5-ol acetic acid], for which the bioavailability result in data set [1] is on record as “better bioavailability in some drug formulations”. Moreover, the “conversion of Form A to Form B” value in data set [2] is listed as “can easily convert to Form B”.
`Cc1c(-c2ccc(O)cc2)n(Cc2ccc(OCCN3CCCCCC3)cc2)c2ccc(O)cc12` [bazedoxifene acetate, 1-[4-(2-azepan-1-yl-ethoxy)-benzyl]-2-(4-hydroxy-phenyl)-3-methyl-1H-indol-5-ol acetic acid]: the “stimulation of uterine response” value in the data set on uterine response is recorded as “little or no stimulation of uterine response”. Further, in data set [3], the “prevention of bone loss” value was “estrogen agonist-like effect in preventing bone loss” and the reduction of cholesterol entry is “reducing cholesterol”. Besides, the estrogen antagonist behaviour result in data set [4] is on record as “behaves as an estrogen antagonist”.
